Entries after “also recorded” stand apart in the source; their conditions may differ. Starred links: 1 amine or outer side, 2 acyl side, 3 side chain; linkers in the order of their positions; H or OH if unused. Positions of bridges follow the written chain, without caps; N, C: chain ends. Non-standard residues stand in square brackets, D forms with d. Residues, ends and D or L forms follow the SMILES beside them. Chains are numbered I, II in the order given. Actinocin(9to1) = Cc1c2oc3c(C)ccc(C(=O)[*:1])c3nc-2c(C(=O)[*:2])c(N)c1=O; NMeV = CN[C@H](C(=O)O)C(C)C; Sar = CNCC(=O)O
System: polyoma virus transformed BHK21/c13 cells, line S100T1
Assay: Collocation inhibition test: clonal growth in sparsely and densely seeded areas of a cell density gradient of S100T1 cells in soft agar (Exp 13, 17, 19-26);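 also: soft agar cultures in 24-well plates with a cell density gradient in the top layer, compounds applied from DMSO stocks, clonal growth scored in sparse versus dense areas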;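 as to Clonal growth, H high density area of cell gradient, High: grades rise with clonal growth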;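 as to Clonal growth, H high density area of cell gradient, Low: grades rise with clonal growth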;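 as to Clonal growth, H high density area of cell gradient, Medium: grades rise with clonal growth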;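 as to Clonal growth, L low density area of cell gradient, High: grades rise with clonal growth and minus or plus-minus means none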;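 as to Clonal growth, L low density area of cell gradient, Low: grades rise with clonal growth and minus or plus-minus means none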;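 as to Clonal growth, L low density area of cell gradient, Medium: grades rise with clonal growth and minus or plus-minus means none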
Settings: for Clonal growth, H: high density area of cell gradient, High / Clonal growth, L: low density area of cell gradient, High / Clonal growth, H: high density area of cell gradient, Low / Clonal growth, L: low density area of cell gradient, Low / Clonal growth, H: high density area of cell gradient, Medium / Clonal growth, L: low density area of cell gradient, Medium: 4-OH-OPB analogues, S100T1 in soft agar; for Clonal inhibition by 4-OH-OPB analogues, summary of Exp 22-25: sparsely seeded areas while densely seeded areas of the same culture showed significant growth; for Effect on clonal growth and toxicity: 117000 S100T1 cells/well; for Clonal growth, H high density area of cell gradient, High / Clonal growth, L low density area of cell gradient, High / Clonal growth, H high density area of cell gradient, Low / Clonal growth, L low density area of cell gradient, Low / Clonal growth, H high density area of cell gradient, Medium / Clonal growth, L low density area of cell gradient, Medium / Effect on cell cloning in soft agar: preliminary results; for Clonal growth, H high density area of cell gradient, High / Clonal growth, L low density area of cell gradient, High / Clonal growth, H high density area of cell gradient, Low / Clonal growth, L low density area of cell gradient, Low / Clonal growth, H high density area of cell gradient, Medium / Clonal growth, L low density area of cell gradient, Medium: Exp 13-18, 21-26; for Effect on cell cloning in soft agar: in words; for Resulting clonal growth of treated cultures: Experiment 26, read after 24 hours
[1] = Experiment 25, H: area with high cell density, Low concentration, after 48 hours incubation
[2] = Experiment 25, H: area with high cell density, Medium concentration, after 48 hours incubation
[3] = Experiment 25, L: area with low cell density, High concentration, after 48 hours incubation
[4] = Experiment 25, L: area with low cell density, Low concentration, after 48 hours incubation
[5] = Experiment 25, L: area with low cell density, Medium concentration, after 48 hours incubation
[6] = Summary Table 3 of analogue tests (experiments 22-25), H (high cell density), Low concentration
[7] = Summary Table 3 of analogue tests (experiments 22-25), H (high cell density), Medium concentration
[8] = Summary Table 3 of analogue tests (experiments 22-25), L (low cell density), High concentration
[9] = Summary Table 3 of analogue tests (experiments 22-25), L (low cell density), Low concentration
[10] = Summary Table 3 of analogue tests (experiments 22-25), L (low cell density), Medium concentration
[11] = Experiment 25, H: area with high cell density, High concentration, after 48 hours incubation
[12] = Exp 21, 117000 cells per well, Low concentration (see figure), H: area with high cell density
[13] = Exp 21, High concentration, H: area with high cell density
[14] = Exp 21, Low concentration, L: area with low cell density
[15] = Exp 21, Medium concentration, H: area with high cell density
[16] = Exp 21, Medium concentration, L: area with low cell density
[17] = H: area with high cell density, High concentration
[18] = H: area with high cell density, Low concentration
[19] = H: area with high cell density, Medium concentration
[20] = L: area with low cell density, High concentration
[21] = L: area with low cell density, Low concentration
[22] = L: area with low cell density, Medium concentration
[23] = Exp 19, 120000 S100T1 cells/well

4-hydroxy-4-aldehyd-1,2-diphenyl-pyrazolidinedione [#10]
Clonal growth, H: high density area of cell gradient, High (high concentration): ((+))
Clonal growth, L: low density area of cell gradient, High (high concentration): −
Clonal growth, H: high density area of cell gradient, Low (low concentration): ++
Clonal growth, L: low density area of cell gradient, Low (low concentration): ++
Clonal growth, H: high density area of cell gradient, Medium (medium concentration): ++
Clonal growth, L: low density area of cell gradient, Medium (medium concentration): −
Concentration inhibiting clonal growth of sparsely seeded cells without affecting densely seeded areas (Exp 25, medium concentration, 180000 S100T1 cells/well): about 50 μM
Clonal growth [1]: ++
Clonal growth [2]: ++
Clonal growth [3]: −
Clonal growth [4]: ++
Clonal growth [5]: −
Clonal growth [6]: ++
Clonal growth [7]: ++
Clonal growth [8]: −
Clonal growth [9]: ++
Clonal growth [10]: −
Clonal inhibition by 4-OH-OPB analogues, summary of Exp 22-25 (listed as # 10): complete inhibition of growth in sparsely seeded areas

CCCCC1(O)C(=O)N(c2ccccc2)N(c2ccccc2)C1=O [#11, 4-butyl-4-hydoxy-1,2-diphenyl-3,5-pyrazolidnedione]
Clonal growth, H: high density area of cell gradient, High (high concentration): ++(+)
Clonal growth, L: low density area of cell gradient, High (high concentration): ++
Clonal growth, H: high density area of cell gradient, Low (low concentration): ++
Clonal growth, L: low density area of cell gradient, Low (low concentration): ++
Clonal growth, H: high density area of cell gradient, Medium (medium concentration): ++
Clonal growth, L: low density area of cell gradient, Medium (medium concentration): ++
Effect on clonal growth (Exp 25, 48 hours incubation): did not show any growth inhibition; also recorded: high concentration might stimulate growth in densely seeded areas
Clonal growth [11]: ++(+)
Clonal growth [1]: ++
Clonal growth [2]: ++
Clonal growth [3]: ++
Clonal growth [4]: ++
Clonal growth [5]: ++
Clonal growth (Summary Table 3 of analogue tests (experiments 22-25), H (high cell density), High concentration): ++(+)
Clonal growth [6]: ++
Clonal growth [7]: ++
Clonal growth [8]: ++
Clonal growth [9]: ++
Clonal growth [10]: ++
Clonal inhibition by 4-OH-OPB analogues, summary of Exp 22-25: possible stimulation at high concentration

Cc1c2oc3c(C)ccc(C(=O)N[C@@H]4C(=O)N[C@H](C(C)C)C(=O)N5CCC[C@H]5C(=O)N(C)CC(=O)N(C)[C@@H](C(C)C)C(=O)O[C@@H]4C)c3nc-2c(C(=O)N[C@@H]2C(=O)N[C@H](C(C)C)C(=O)N3CCC[C@H]3C(=O)N(C)CC(=O)N(C)[C@@H](C(C)C)C(=O)O[C@@H]2C)c(N)c1=O [Actino-mycin D, Actinomycin D, reference compound] (I: T[dV]P[Sar][NMeV] / II: T[dV]P[Sar][NMeV]; ester I:1-I:C, II:1-II:C; linker I:N-II:N via Actinocin(9to1))
Effect on clonal growth and toxicity (Exp 21): good, but probably no complete inhibition of clonal growth at low toxicity; also recorded: no absolute clonal inhibition of sparsely seeded cells; also recorded: There was signs of good, but not complete
Clonal growth [12]: ++
Clonal growth [13]: +
Clonal growth [14]: +
Clonal growth [15]: ++
Clonal growth [16]: (+)
Clonal growth, H high density area of cell gradient, High (high concentration): +
Clonal growth, L low density area of cell gradient, High (high concentration): ((+))
Clonal growth, H high density area of cell gradient, Low (low concentration): ++
Clonal growth, L low density area of cell gradient, Low (low concentration): +
Clonal growth, H high density area of cell gradient, Medium (medium concentration): ++
Clonal growth, L low density area of cell gradient, Medium (medium concentration): (+)
Effect on cell cloning in soft agar: Good, but not complete inhibition

CN(C)c1nc(N(C)C)nc(N(C)C)n1 [Altretamine, reference compound]
Effect on clonal growth (Exp 26): No effect on cell growth was observed; also recorded: carcinoma in mice. Altretamine had no effect
Resulting clonal growth of treated cultures [17]: ++
Resulting clonal growth of treated cultures [18]: ++
Resulting clonal growth of treated cultures [19]: ++
Resulting clonal growth of treated cultures [20]: ++
Resulting clonal growth of treated cultures [21]: ++
Resulting clonal growth of treated cultures [22]: ++
Clonal growth, H high density area of cell gradient, High (high concentration): ++
Clonal growth, L low density area of cell gradient, High (high concentration): ++
Clonal growth, H high density area of cell gradient, Low (low concentration): ++
Clonal growth, L low density area of cell gradient, Low (low concentration): ++
Clonal growth, H high density area of cell gradient, Medium (medium concentration): ++
Clonal growth, L low density area of cell gradient, Medium (medium concentration): ++
Effect on cell cloning in soft agar: No effect

Cn1cnc([N+](=O)[O-])c1Sc1ncnc2nc[nH]c12 [Azathioprin, reference compound]
Effect on clonal growth (Exp 25, 48 hours incubation): no clonal inhibition or stimulation
Clonal growth [11]: ++
Clonal growth [1]: ++
Clonal growth [2]: ++
Clonal growth [3]: ++
Clonal growth [4]: ++
Clonal growth [5]: ++
Clonal growth, H high density area of cell gradient, High (high concentration): ++
Clonal growth, L low density area of cell gradient, High (high concentration): ++
Clonal growth, H high density area of cell gradient, Low (low concentration): ++
Clonal growth, L low density area of cell gradient, Low (low concentration): ++
Clonal growth, H high density area of cell gradient, Medium (medium concentration): ++
Clonal growth, L low density area of cell gradient, Medium (medium concentration): ++
Effect on cell cloning in soft agar: No effect

c1ccc2c(c1)cc1ccc3cccc4ccc2c1c34 [Benzo(a)pyrene, reference compound]
Effect on clonal growth, high dose (Exp 26, 172800 S100T1 cells/well): increased clonability
Resulting clonal growth of treated cultures [17]: ++
Resulting clonal growth of treated cultures [18]: ++
Resulting clonal growth of treated cultures [19]: ++
Resulting clonal growth of treated cultures [20]: +++
Resulting clonal growth of treated cultures [21]: ++
Resulting clonal growth of treated cultures [22]: ++
Clonal growth, H high density area of cell gradient, High (high concentration): ++
Clonal growth, L low density area of cell gradient, High (high concentration): +++
Clonal growth, H high density area of cell gradient, Low (low concentration): ++
Clonal growth, L low density area of cell gradient, Low (low concentration): ++
Clonal growth, H high density area of cell gradient, Medium (medium concentration): ++
Clonal growth, L low density area of cell gradient, Medium (medium concentration): ++
Effect on cell cloning in soft agar: Increased clonal growth at low density

COc1cc2c(c(OC)c1OC)-c1ccc(OC)c(=O)cc1[C@@H](NC(C)=O)CC2 [Colchicin]
Control of metastatic cells leaving tumour (ability of cells to leave a tumour, grow and infiltrate locally or grow in sparsely seeded areas, concluded from Exp 17): probably not
Control of settlement of metastatic cells (single cells or very few cells spread to distant sites, concluded from Exp 17): partly
Toxicity for body or dense cell populations (supposed main advantages or disadvantages if used in cancer treatment, concluded from Exp 17): none or small
Tolerating long duration of treatment (supposed, if used in cancer treatment): yes

O=P1(N(CCCl)CCCl)NCCCO1 (centres unmarked) [Cycloph. amide]
Clonal growth after 48 hours incubation (Exp 19, high concentration, H: high cell density part of the gradient): ++
Clonal growth after 48 hours incubation (Exp 19, low concentration (exact conc. only in figure), H: high cell density part of the gradient): ++(+)
Clonal growth after 48 hours incubation (Exp 19, medium concentration, H: high cell density part of the gradient): ++(+)

O=P1(N(CCCl)CCCl)NCCCO1 (centres unmarked) [Cyclophosphamide, reference compound]
Effect on growth in densely and sparsely seeded areas [23]: no inhibition of growth in any of these areas; also recorded: No inhibition of clonal cell growth was
Effect on growth in densely seeded areas [23]: stimulation of clonal growth probably was significant
Effect on growth in densely and sparsely seeded areas (Exp 19, 120000 S100T1 cells/well, listed as cyclophosphamide): obtained, but cyclophosphamide stimulated
Clonal growth after 48 hours incubation (Exp 19, high concentration, L: low cell density part of the gradient): ++
Clonal growth after 48 hours incubation (Exp 19, low concentration, L: low cell density part of the gradient): ++
Clonal growth after 48 hours incubation (Exp 19, medium concentration, L: low cell density part of the gradient): ++
Clonal growth, H high density area of cell gradient, High (high concentration): ++
Clonal growth, L low density area of cell gradient, High (high concentration): ++
Clonal growth, H high density area of cell gradient, Low (low concentration): ++(+)
Clonal growth, L low density area of cell gradient, Low (low concentration): ++
Clonal growth, H high density area of cell gradient, Medium (medium concentration): ++(+)
Clonal growth, L low density area of cell gradient, Medium (medium concentration): ++
Effect on cell cloning in soft agar: When unactivated growth increased in

Nc1ccn([C@@H]2O[C@H](CO)[C@@H](O)[C@@H]2O)c(=O)n1 [Cytarabin, reference compound]
Effect on clonal growth and toxicity (Exp 21): significant toxic effect at dosage that showed significant inhibition of clonal growth; also recorded: incomplete inhibition and signs of toxicity
Effect on clonal growth and toxicity (Exp 21, listed as Cytarabine): incomplete inhibition of clonal growth and significant toxicity
Clonal growth [12]: ++
Clonal growth [13]: (+)
Clonal growth (Exp 21, High concentration, L: area with low cell density): (+)
Clonal growth [14]: +
Clonal growth [15]: ++
Clonal growth [16]: +
Clonal growth, H high density area of cell gradient, High (high concentration): (+)
Clonal growth, L low density area of cell gradient, High (high concentration): (+)
Clonal growth, H high density area of cell gradient, Low (low concentration): ++
Clonal growth, L low density area of cell gradient, Low (low concentration): +
Clonal growth, H high density area of cell gradient, Medium (medium concentration): ++
Clonal growth, L low density area of cell gradient, Medium (medium concentration): +
Effect on cell cloning in soft agar: Incomplete inhibition of clonal growth

From patent US20060121449A1, “Method for selection of compounds which inhibit clonal cell growth and use thereof” (priority 2002, published 2006)
